{
  "source": "patent US20070190651A1",
  "about": "“Myogenic Development and Protection of Stem Cells Against Inflammation and Apoptosis By Statins and Isoprenoid Pathway Inhibitors” (Board of Regents of the University of Texas System, priority 2006, published 2007)",
  "key": {"[1]": {"test_system": "iNOS", "assay": "Immunoblotting for iNOS protein in cytokine-stimulated H9c2 cardiac myoblasts", "assay_type": "cell-based, rat", "settings": "H9c2", "protocol": "Cell cultures. H9c2 cells purchased from American Type Culture Collection (ATCC, Rockville, Md.) are spontaneously immortalized ventricular myoblasts from the rat embryo, with preservation of several electrical and biochemical characteristics found in adult cardiomyocytes. They were cultured in DMEM medium (ATCC) supplemented with 10% heat-inactivated fetal bovine serum (FBS) in 95% air and 5% CO2 at 37° C. […] After certain time intervals, 100 μL/well culture media were collected for determination of nitrite production.\nImmunoblotting. Total proteins were isolated from rat cardiac myoblasts (H9c2 cells) or embryonic stem cells in an ice-cold lysis buffer containing 10 mmol/L Tris (tris(hydroxymethyl)aminomethane) (pH 7.4), 1% sodium dodecyl sulfate (SDS) and 1× protease inhibitor (1 mmol/L sodium orthovanadate). Proteins (15 μg/lane) were separated under the reducing conditions (125 mM Tris pH 6.8, 4% SDS, 10% glycerol, 0.006% bromophenol blue, 2% β-mercaptoethanol) by electrophoresis onto 5-10% SDS-polyacrylamide gel and electro-blotted to nitrocellulose membranes (Osmonics, Westborough, Mass.). The membranes were reversibly stained with Ponceau red (Sigma) to verify equal protein loading and/or transfer. After blocking in Tris-buffered saline (0.2 M Tris and 8% NaCl) containing 5% non-fat powdered milk and 0.1% Tween 20 for 1 hour at room temperature, the membranes were incubated overnight at 4° C. with following primary antibodies to (a) iNOS (Transduction Laboratories, Lexington, Ky.; BD Biosciences); (b) NF-κB p65/rel (Santa Cruz Biotechnologies, Santa Cruz, Calif.); (c) ser^32-phosphorylated inhibitor IκBα (Santa Cruz); (d) Bad (BD Biosciences, San Jose, Calif.); (e) Bcl-xL (BD Biosciences); (f) proliferating cell nuclear antigen (PCNA; BC Biosciences); (g) ryanodine receptor (Santa Cruze Biotechnology, Inc., Santa Cruz, Calif.); (h) α-sarcomeric actinin (Sigma); (i) myocardin A (developed by immunizing rabbits with a synthetic myocardin A peptide); (j) Tie-2 (Santa Cruz); (k) manganese superoxide dismutase (Santa Cruz); and (1) β-tubulin (Sigma). The blots were incubated with horseradish peroxidase-coupled secondary antibodies, washed and developed by using a SuperSignal West Pico Chemiluminescent Substrate Kit (Pierce, Rockford, Ill.). Intensity of each immunoreactive protein band was quantified by densitometric analysis. Cytokine-stimulated RAW 264.7 cells (Transduction Laboratories, Lexington, Ky.) were used as positive controls."}, "[2]": {"test_system": "murine embryonic stem cells", "assay_type": "cell-based", "protocol": "At day 12, the number of contracting EB outgrowths (Panel A) and extension of beating area (Panel B) were detrmined by morphometry. The results were plotted as percentages of the total EBs counted in each well and shown as the mean ±SD for each of the 3 separate experiments. *, P<0.05 vs untreated control; #, P<0.05 vs simvastatin-treated control.\nThe murine ESC (mESC) line CCE was obtained from American Type Culture Collection (ATCC, Rockville, Md.). Murine ESCs were cultured without feeder cells in Dulbecco's modified Eagle's medium supplemented with 10% ESC-qualified Fetal Bovine Serum (FBS) (Stem Cell Technologies, Vancouver, Va.), pyruvate (Stem Cell Technologies, stock solution diluted 1:100), 2 mM L-glutamine, nonessential amino acids (Stem Cell Technologies, stock solution diluted 1:100), 100 IU/mL penicillin, 0.1 mg/mL streptomycin, and leukemia inhibitory factor (LIF) (Stem Cell Technologies). To induce differentiation, EBs were formed from undifferentiated mESCs in hanging drops of 400 cells in 20 μL of medium without LIF. After 5 days in suspension, EBs were plated on gelatin-coated dishes and cultured in cardiomyocyte-differentiation medium (Iscove's modified Eagle's medium, supplemented with 15% FBS, 2 mM L-glutamine, 5×10^−5 M β-mercaptoethanol, nonessential aminoacids, 100 IU/mL penicillin, 0.1 mg/mL streptomycin).\nStatin Treatment. […] The inhibition of endogenous cholesterol synthesis was the mechanism used for analyzing the effect of endogenous cholesterol depletion on EB differentiation. By days 8 through 12 after plating, spontaneously contracting cell clusters could be observed within the EB outgrowths. Culture media from both simvastatin-treated and untreated cells were changed each day after day 3.\nSpontaneous cardiac differentiation of mouse embryonic stem cells (mESCs) was assessed in vitro as the presence of rhythmically beating […] (EB) outgrowth. […] Thereafter, EB outgrowths were counted periodically under the inverted microscope equipped with a digital video camera, to determine whether or not they contained beating foci at different time points (days 3, 5, 7, 10, 12, and 14). At approximately day 7, contracting areas began to appear. […] Concomitant with the increased number of beating EBs, the size of the beating area for simvastatin-treated EBs increased 2-fold (evaluated at day 12) compared to that of untreated control EBs, a significant augmentation (p<0.05) (FIG. 22B)."}, "[3]": {"test_system": "iNOS", "assay": "Nitrite production (Griess reaction) in H9c2 cardiac myoblasts", "assay_type": "cell-based, rat", "settings": "added to simvastatin + IL-1α 20 ng/mL", "protocol": "Cell cultures. H9c2 cells purchased from American Type Culture Collection (ATCC, Rockville, Md.) are spontaneously immortalized ventricular myoblasts from the rat embryo, with preservation of several electrical and biochemical characteristics found in adult cardiomyocytes. […] After certain time intervals, 100 μL/well culture media were collected for determination of nitrite production. Assay for NO Production. The activity of iNOS was determined in the culture medium by assaying nitrites, taken as an index of NO production, using the Griess reagent (1% sulphanilic acid and 0.1% N-[1-naphtyl] ethylenediamine-HCl in 5% phosphoric acid) as reported previously (4,18,19). Equal volumes of medium and Griess reagent were mixed, and the purple products quantified spectrophotometrically at 550 nm. Nitrite concentrations were determined from a linear standard curve constructed with known concentrations of sodium nitrite (0 to 40 μmol/L nitrite). Nitrite Assays. Nitrite, a stable end-product of nitric oxide, was measured by using Griess reagent (1% sulphanilic acid and 0.1% N-[1-naphtyl] ethylenediamine-HCl in 5% phosphoric acid). Equal volumes of medium and Griess reagent were mixed, and the resulting purple product quantified by spectrophotometric assay at 550 nm. Nitrite concentrations were calculated from a linear standard curve constructed with known concentrations of sodium nitrite (0-14 μmol/L nitrite) (19)."}, "[4]": {"test_system": "NF-κB p65/RelA", "assay": "Immunoblotting for p65/RelA subunit of NF-κB, total cellular or nuclear proteins of H9c2 cells", "assay_type": "cell-based, rat", "settings": "simvastatin + IL-1α + L-mevalonate"}, "[5]": {"test_system": "H9c2 embryonic myoblasts", "assay": "Immunoblotting for Bad, Bcl-xL and PCNA in H9c2 embryonic myoblasts with IL-1", "assay_type": "cell-based, rat", "settings": "L-mevalonate added to simvastatin + IL-1", "protocol": "Quantitation of protein bands was achieved by densitometry (Panels D, E and F, bottom). β-Tubulin staining of stripped blots was used as a control. […] PCNA, proliferating cell nuclear antigen; IL-1, interleukin-1-α; iNOS, inducible nitric oxide synthase; MnSOD, manganese superoxide dismutase.\n(§1) The rat embryonic myogenic cell line H9c2 was commercially obtained from ATCC and maintained in Dulbecco's modified Eagle's medium (GIBCO) supplemented with 10% FBS at 37° C. in 95% air and 5% CO2.\nImmunoblotting. Total proteins were isolated from rat cardiac myoblasts (H9c2 cells) or embryonic stem cells in an ice-cold lysis buffer containing 10 mmol/L Tris (tris(hydroxymethyl)aminomethane) (pH 7.4), 1% sodium dodecyl sulfate (SDS) and 1× protease inhibitor (1 mmol/L sodium orthovanadate). Proteins (15 μg/lane) were separated under the reducing conditions (125 mM Tris pH 6.8, 4% SDS, 10% glycerol, 0.006% bromophenol blue, 2% β-mercaptoethanol) by electrophoresis onto 5-10% SDS-polyacrylamide gel and electro-blotted to nitrocellulose membranes (Osmonics, Westborough, Mass.). The membranes were reversibly stained with Ponceau red (Sigma) to verify equal protein loading and/or transfer. […] Intensity of each immunoreactive protein band was quantified by densitometric analysis. […]"}, "[6]": {"test_system": "H9c2 embryonic myoblasts", "assay": "Apoptosis assay (acridine orange and ethidium bromide) in H9c2 embryonic myoblasts", "assay_type": "cell-based, rat", "settings": "mevalonate 10^−4 mol/l with IL-1 + simvastatin", "protocol": "The cells were exposed with IL-1αSimvastatin for 24 hours and then stained with two fluorochromes: acridine orange and ethidium bromide. Living (green fluorescence) and apoptotic (red fluorescence) cells were identified and counted with an Olympus fluorescence microscope connected to a computer imaging station.\nas §1\nAssays for Apoptosis. Analysis of apoptotic cells was performed by fluorescent microscopy with fluorochromes acridine orange and ethidium bromide (Sigma), as described previously (19). Apoptotic cells were discernible by their condensed, fragmented nuclei stained with both fluorochromes and were counted under a fluorescence microscope (Olympus, Center Valley, Pa.) connected to a computer imaging analysis station."}, "[7]": {"test_system": "NF-κB", "settings": "cited from earlier work"}, "[8]": {"test_system": "Rho kinase", "settings": "cited from earlier work"}, "[9]": {"test_system": "iNOS", "settings": "lovastatin pretreatment; cited from earlier work"}, "[10]": {"test_system": "iNOS", "settings": "cited from earlier work"}, "[11]": {"settings": "injected subcutaneously over the calvaria of mice; cited from earlier work"}, "[12]": {"settings": "orally administered to rats; cited from earlier work"}},
  "note": "Entries after “also recorded” stand apart in the source; their conditions may differ.",
  "data": [
    {"smiles": "CC(O)(CCO)CC(=O)O", "note": "[L-mevalonate]", "values": [
      {"measurement": "effect on simvastatin inhibition of cytokine-induced iNOS protein expression", "setting": "[1]; added to simvastatin + IL-1α or TNF-α", "result": "reversibly blocked; also recorded: blocks the simvastatin inhibitory effect; also recorded: diminished the inhibitory effect of simvastatin"},
      {"measurement": "cytokine-induced iNOS protein expression in the absence of simvastatin", "setting": "[1]; cytokine-stimulated, no simvastatin", "result": "no or little effect on cytokine-induced iNOS expression"},
      {"measurement": "cytotoxicity in EBs", "setting": "[2]", "result": "without any cytotoxicity"},
      {"measurement": "contracting EBs in the absence of simvastatin", "setting": "[2]; L-mevalonate alone", "result": "no or little effect on contracting EBs"},
      {"measurement": "effect on nitrite production in cells treated with simvastatin plus IL-1α", "setting": "[3]", "result": "significantly increased the nitrite concentrations"},
      {"measurement": "nuclear p65/rel protein levels in statin-treated, cytokine-stimulated cells", "setting": "[4]", "result": "could elevate the nuclear p65/rel protein levels"},
      {"measurement": "effect on the simvastatin effect on Bcl-xL", "setting": "[5]", "result": "reversed the statin effect"},
      {"measurement": "effect on the simvastatin cytoprotective effect", "setting": "[6]", "result": "diminished"}
    ]},
    {"smiles": "CC[C@H](C)C(=O)O[C@H]1CCC=C2C=C[C@H](C)[C@H](CC[C@@H]3C[C@@H](O)CC(=O)O3)[C@H]21", "note": "[mevastatin]", "values": [
      {"measurement": "NF-κB activity and NF-κB-dependent VCAM and E-selectin expression", "setting": "[7]", "result": "inactivate NF-κB and reduce NF-κB-dependent expression of the endothelial adhesion proteins"}
    ]},
    {"smiles": "CC[C@H](C)C(=O)O[C@H]1C[C@@H](C)C=C2C=C[C@H](C)[C@H](CC[C@@H]3C[C@@H](O)CC(=O)O3)[C@H]21", "note": "[lovastatin]", "values": [
      {"measurement": "Rho kinase activity", "setting": "[8]", "result": "inhibit the Rho kinase activity"},
      {"measurement": "IL-1beta induction of iNOS", "setting": "[9]", "result": "superinduction of iNOS"},
      {"measurement": "iNOS and cytokine expression", "setting": "[10]; rat macrophages, astrocytes, and microglia", "result": "inhibits iNOS and cytokine expression"},
      {"measurement": "LPS-induced iNOS expression", "setting": "[10]; rat primary astrocytes", "result": "blocks LPS-induced iNOS expression"},
      {"measurement": "bone formation", "setting": "[11]", "result": "increase bone formation"},
      {"measurement": "cancellous bone volume", "setting": "[12]", "result": "increased cancellous bone volume"}
    ]}
  ]
}
